Reference: article PMC10817531, “Chlorinated Enyne Fatty Acid Amides from a Marine Cyanobacterium: Discovery of Taveuniamides L-M and Pharmacological Characterization of Taveuniamide F as a GPCR Antagonist with CNR1 Selectivity” (Marine Drugs, 2023)

Assays:
Experiment in all cases: PathHunter β-arrestin GpcrMAX assay
Type in all cases: cell-based
F2RL1 = molecular target: T1, F2RL1 (Homo sapiens, UniProt P55085)
T1 construct: purchased DiscoveRx (Eurofins) gpcrMAX PathHunter β-arrestin panel
Summary of the method: (§1)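 Run as a β-arrestin EFC panel, the screen exposed receptors to 20 µM taveuniamide F, scoring both stimulation (agonist mode) and blockade (antagonist mode).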

ADRA2B = molecular target: T2, ADRA2B (Homo sapiens, UniProt P18089)
T2 construct: purchased DiscoveRx (Eurofins) gpcrMAX PathHunter β-arrestin panel
Summary of the method: as §1

PPYR1 = molecular target: T3, PPYR1 (Homo sapiens, UniProt P50391)
T3 construct: purchased DiscoveRx (Eurofins) gpcrMAX PathHunter β-arrestin panel
T3 sequence (P50391 whole entry): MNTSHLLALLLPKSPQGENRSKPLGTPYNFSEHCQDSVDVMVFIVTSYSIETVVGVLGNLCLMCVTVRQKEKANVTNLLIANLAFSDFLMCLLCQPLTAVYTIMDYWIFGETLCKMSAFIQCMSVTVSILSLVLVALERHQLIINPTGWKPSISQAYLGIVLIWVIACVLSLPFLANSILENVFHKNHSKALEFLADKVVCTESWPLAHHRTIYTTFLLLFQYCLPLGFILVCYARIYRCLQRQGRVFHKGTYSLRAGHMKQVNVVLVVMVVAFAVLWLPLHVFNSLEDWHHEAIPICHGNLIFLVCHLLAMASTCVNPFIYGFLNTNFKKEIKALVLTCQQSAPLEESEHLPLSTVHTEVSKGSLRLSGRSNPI
Summary of the method: as §1

GCGR = molecular target: T4, GCGR (Homo sapiens, UniProt P47871)
T4 construct: purchased DiscoveRx (Eurofins) gpcrMAX PathHunter β-arrestin panel
T4 sequence (P47871 26-477): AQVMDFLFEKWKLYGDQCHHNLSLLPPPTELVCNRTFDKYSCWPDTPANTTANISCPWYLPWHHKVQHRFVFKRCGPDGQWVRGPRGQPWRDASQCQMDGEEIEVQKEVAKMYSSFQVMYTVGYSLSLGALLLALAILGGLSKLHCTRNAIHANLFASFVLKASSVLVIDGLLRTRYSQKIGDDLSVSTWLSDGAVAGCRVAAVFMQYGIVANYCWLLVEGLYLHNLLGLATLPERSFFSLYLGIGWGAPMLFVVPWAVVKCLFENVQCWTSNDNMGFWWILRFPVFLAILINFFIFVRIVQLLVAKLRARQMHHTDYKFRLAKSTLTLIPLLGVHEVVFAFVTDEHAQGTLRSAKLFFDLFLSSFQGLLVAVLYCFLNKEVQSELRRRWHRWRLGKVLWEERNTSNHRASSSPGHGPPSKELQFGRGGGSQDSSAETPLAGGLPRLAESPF
Summary of the method: as §1

DRD2S = molecular target: T5, DRD2S (Homo sapiens, UniProt P14416)
T5 construct: purchased DiscoveRx (Eurofins) gpcrMAX PathHunter β-arrestin panel
Summary of the method: as §1

GIPR = molecular target: T6, GIPR (Homo sapiens, UniProt P48546)
T6 construct: purchased DiscoveRx (Eurofins) gpcrMAX PathHunter β-arrestin panel
Summary of the method: as §1

DRD2L = molecular target: T7, DRD2L (Homo sapiens, UniProt P14416)
T7 construct: purchased DiscoveRx (Eurofins) gpcrMAX PathHunter β-arrestin panel
Summary of the method: as §1

CCR6 = molecular target: T8, CCR6 (Homo sapiens, UniProt P51684)
T8 construct: purchased DiscoveRx (Eurofins) gpcrMAX PathHunter β-arrestin panel
T8 sequence (P51684 whole entry): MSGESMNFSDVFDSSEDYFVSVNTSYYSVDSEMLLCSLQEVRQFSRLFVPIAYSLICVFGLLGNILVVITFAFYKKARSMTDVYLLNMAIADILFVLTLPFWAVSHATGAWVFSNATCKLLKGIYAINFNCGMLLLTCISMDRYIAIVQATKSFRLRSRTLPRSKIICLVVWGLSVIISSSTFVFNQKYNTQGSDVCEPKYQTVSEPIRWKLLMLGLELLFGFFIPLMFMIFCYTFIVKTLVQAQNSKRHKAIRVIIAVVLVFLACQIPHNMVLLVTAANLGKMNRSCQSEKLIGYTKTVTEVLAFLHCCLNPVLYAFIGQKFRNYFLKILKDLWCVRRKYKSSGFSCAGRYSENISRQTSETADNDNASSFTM
Summary of the method: as §1

GHSR = molecular target: T9, GHSR (Homo sapiens, UniProt Q92847)
T9 construct: purchased DiscoveRx (Eurofins) gpcrMAX PathHunter β-arrestin panel
T9 sequence (Q92847 whole entry): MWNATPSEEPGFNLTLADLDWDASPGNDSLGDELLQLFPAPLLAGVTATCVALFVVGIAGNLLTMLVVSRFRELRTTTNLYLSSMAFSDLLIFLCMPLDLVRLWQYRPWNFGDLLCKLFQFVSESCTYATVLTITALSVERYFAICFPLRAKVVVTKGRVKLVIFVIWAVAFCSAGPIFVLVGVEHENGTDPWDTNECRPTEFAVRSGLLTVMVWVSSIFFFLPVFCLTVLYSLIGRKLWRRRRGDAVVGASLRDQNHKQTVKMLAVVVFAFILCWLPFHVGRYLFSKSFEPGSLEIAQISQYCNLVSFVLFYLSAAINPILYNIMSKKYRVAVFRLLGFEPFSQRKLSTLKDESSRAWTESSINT
Summary of the method: as §1

P2RY1 = molecular target: T10, P2RY1 (Homo sapiens, UniProt P47900)
T10 construct: purchased DiscoveRx (Eurofins) gpcrMAX PathHunter β-arrestin panel
Summary of the method: as §1

CXCR3 = molecular target: T11, CXCR3 (Homo sapiens, UniProt P49682)
T11 construct: purchased DiscoveRx (Eurofins) gpcrMAX PathHunter β-arrestin panel
Summary of the method: as §1

EDG4 = molecular target: T12, EDG4 (Homo sapiens, UniProt Q9HBW0)
T12 construct: purchased DiscoveRx (Eurofins) gpcrMAX PathHunter β-arrestin panel
T12 sequence (Q9HBW0 whole entry): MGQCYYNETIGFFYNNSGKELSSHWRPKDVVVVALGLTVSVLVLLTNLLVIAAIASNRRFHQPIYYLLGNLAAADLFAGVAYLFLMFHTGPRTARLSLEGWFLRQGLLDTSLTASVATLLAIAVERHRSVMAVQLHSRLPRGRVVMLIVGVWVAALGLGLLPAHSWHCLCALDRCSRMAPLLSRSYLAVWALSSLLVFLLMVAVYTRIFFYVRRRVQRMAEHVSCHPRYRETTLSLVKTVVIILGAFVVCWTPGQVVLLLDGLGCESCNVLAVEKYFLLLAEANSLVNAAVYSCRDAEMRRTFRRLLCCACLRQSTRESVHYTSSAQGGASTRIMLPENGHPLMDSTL
Summary of the method: as §1

TSHR(L) = molecular target: T13, TSHR(L) (Homo sapiens, UniProt P16473)
T13 construct: purchased DiscoveRx (Eurofins) gpcrMAX PathHunter β-arrestin panel
Summary of the method: as §1

PTHR2 = molecular target: T14, PTHR2 (Homo sapiens, UniProt P49190)
T14 construct: purchased DiscoveRx (Eurofins) gpcrMAX PathHunter β-arrestin panel
T14 sequence (P49190 25-550): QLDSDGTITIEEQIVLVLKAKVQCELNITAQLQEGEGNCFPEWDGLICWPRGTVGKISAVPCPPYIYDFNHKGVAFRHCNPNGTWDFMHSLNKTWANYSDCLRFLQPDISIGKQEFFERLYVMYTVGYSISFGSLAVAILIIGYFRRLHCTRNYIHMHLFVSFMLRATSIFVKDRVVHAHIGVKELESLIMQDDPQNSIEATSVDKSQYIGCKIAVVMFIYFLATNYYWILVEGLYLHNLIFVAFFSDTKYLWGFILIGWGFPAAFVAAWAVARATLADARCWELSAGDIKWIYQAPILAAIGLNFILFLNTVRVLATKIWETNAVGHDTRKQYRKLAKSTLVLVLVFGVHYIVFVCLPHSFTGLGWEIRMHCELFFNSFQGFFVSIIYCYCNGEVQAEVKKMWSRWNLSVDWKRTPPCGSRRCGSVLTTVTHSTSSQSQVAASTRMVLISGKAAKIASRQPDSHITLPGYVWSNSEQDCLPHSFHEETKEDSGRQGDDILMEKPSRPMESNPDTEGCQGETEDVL
Summary of the method: as §1

PTGER3 = molecular target: T15, PTGER3 (Homo sapiens, UniProt P43115)
T15 construct: purchased DiscoveRx (Eurofins) gpcrMAX PathHunter β-arrestin panel
Summary of the method: as §1

TRHR = molecular target: T16, TRHR (Homo sapiens, UniProt P34981)
T16 construct: purchased DiscoveRx (Eurofins) gpcrMAX PathHunter β-arrestin panel
T16 sequence (P34981 whole entry): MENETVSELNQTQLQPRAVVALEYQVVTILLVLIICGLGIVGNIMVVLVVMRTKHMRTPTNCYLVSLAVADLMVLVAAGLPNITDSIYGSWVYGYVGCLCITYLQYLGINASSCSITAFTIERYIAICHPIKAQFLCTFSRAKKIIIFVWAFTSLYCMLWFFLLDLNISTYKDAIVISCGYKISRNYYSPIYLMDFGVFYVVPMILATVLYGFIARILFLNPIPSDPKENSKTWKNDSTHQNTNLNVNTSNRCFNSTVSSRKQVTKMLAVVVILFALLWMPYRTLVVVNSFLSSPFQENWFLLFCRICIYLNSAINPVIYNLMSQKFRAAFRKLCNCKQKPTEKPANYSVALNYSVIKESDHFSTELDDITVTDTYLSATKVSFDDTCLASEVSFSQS
Summary of the method: as §1

CALCR = CALCR (Homo sapiens, UniProt P30988)
Summary of the method: as §1

HTR5A = molecular target: T17, HTR5A (Homo sapiens, UniProt P47898)
T17 construct: purchased DiscoveRx (Eurofins) gpcrMAX PathHunter β-arrestin panel
T17 sequence (P47898 whole entry): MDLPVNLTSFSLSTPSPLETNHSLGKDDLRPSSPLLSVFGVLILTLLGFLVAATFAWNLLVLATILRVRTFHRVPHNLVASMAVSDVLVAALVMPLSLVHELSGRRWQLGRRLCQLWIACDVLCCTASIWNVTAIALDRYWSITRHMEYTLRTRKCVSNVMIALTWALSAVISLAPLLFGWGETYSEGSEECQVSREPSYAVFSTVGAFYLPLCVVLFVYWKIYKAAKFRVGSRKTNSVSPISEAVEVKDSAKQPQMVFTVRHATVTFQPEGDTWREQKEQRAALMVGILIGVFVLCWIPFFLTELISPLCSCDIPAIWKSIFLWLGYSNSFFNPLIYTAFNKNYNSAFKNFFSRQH
Summary of the method: as §1

RXFP3 = molecular target: T18, RXFP3 (Homo sapiens, UniProt Q9NSD7)
T18 construct: purchased DiscoveRx (Eurofins) gpcrMAX PathHunter β-arrestin panel
Summary of the method: as §1

GPR35 = molecular target: T19, GPR35 (Homo sapiens, UniProt Q9HC97)
T19 construct: purchased DiscoveRx (Eurofins) gpcrMAX PathHunter β-arrestin panel
T19 sequence (Q9HC97 whole entry): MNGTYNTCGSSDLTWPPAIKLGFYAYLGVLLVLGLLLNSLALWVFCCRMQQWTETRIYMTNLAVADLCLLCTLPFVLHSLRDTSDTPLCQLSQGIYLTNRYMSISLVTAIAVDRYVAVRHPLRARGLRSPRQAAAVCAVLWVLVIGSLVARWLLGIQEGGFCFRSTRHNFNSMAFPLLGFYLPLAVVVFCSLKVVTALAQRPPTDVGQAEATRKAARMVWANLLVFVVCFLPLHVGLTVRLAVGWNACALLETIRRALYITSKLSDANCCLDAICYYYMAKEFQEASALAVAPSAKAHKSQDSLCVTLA
Summary of the method: as §1

GPR109A = molecular target: T20, GPR109A (Homo sapiens, UniProt Q8TDS4)
T20 construct: purchased DiscoveRx (Eurofins) gpcrMAX PathHunter β-arrestin panel
Summary of the method: as §1

LHCGR = molecular target: T21, LHCGR (Homo sapiens, UniProt P22888)
T21 construct: purchased DiscoveRx (Eurofins) gpcrMAX PathHunter β-arrestin panel
T21 sequence (P22888 27-699): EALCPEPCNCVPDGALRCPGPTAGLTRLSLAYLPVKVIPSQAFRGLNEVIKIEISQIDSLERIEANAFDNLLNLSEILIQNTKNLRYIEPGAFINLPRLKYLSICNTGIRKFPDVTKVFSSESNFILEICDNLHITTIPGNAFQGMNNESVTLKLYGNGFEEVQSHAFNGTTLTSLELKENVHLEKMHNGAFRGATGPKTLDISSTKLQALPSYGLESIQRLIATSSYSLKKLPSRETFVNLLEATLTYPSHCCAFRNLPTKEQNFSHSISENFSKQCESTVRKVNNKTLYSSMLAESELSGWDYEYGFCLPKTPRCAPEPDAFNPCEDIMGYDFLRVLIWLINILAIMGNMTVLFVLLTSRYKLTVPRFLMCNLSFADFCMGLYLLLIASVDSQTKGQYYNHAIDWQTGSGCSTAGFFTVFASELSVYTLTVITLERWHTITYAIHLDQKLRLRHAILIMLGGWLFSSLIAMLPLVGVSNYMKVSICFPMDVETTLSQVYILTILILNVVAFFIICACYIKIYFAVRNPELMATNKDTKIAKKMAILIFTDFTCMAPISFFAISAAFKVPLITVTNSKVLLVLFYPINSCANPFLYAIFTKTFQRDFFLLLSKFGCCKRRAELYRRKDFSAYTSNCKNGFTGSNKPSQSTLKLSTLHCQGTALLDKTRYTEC
Summary of the method: as §1

CCR8 = molecular target: T22, CCR8 (Homo sapiens, UniProt P51685)
T22 construct: purchased DiscoveRx (Eurofins) gpcrMAX PathHunter β-arrestin panel
T22 sequence (P51685 whole entry): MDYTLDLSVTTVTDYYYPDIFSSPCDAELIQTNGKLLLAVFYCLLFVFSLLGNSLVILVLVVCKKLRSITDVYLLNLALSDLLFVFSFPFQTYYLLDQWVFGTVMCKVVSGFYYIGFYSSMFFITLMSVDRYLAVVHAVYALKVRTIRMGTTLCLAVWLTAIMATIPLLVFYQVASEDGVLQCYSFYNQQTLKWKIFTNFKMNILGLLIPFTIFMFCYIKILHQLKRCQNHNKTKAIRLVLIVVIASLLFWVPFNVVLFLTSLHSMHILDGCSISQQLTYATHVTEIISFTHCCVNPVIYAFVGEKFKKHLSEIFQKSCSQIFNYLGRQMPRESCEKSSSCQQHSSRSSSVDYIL
Summary of the method: as §1

CXCR5 = molecular target: T23, CXCR5 (Homo sapiens, UniProt P32302)
T23 construct: purchased DiscoveRx (Eurofins) gpcrMAX PathHunter β-arrestin panel
T23 sequence (P32302 whole entry): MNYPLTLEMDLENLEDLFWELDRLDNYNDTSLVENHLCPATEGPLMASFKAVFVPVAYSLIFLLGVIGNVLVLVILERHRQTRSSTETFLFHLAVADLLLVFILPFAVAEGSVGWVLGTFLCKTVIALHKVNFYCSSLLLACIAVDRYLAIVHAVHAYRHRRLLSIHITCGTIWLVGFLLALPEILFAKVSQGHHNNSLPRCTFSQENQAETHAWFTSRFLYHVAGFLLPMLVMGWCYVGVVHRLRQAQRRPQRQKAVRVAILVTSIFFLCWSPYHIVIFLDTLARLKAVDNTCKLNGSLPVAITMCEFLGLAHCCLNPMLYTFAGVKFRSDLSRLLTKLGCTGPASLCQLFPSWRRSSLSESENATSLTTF
Summary of the method: as §1

MC4R = molecular target: T24, MC4R (Homo sapiens, UniProt P32245)
T24 construct: purchased DiscoveRx (Eurofins) gpcrMAX PathHunter β-arrestin panel
Summary of the method: as §1

inhibition at 20 µM (F2RL1): -6.7%
inhibition at 20 µM (ADRA2B): 10.7%
inhibition at 20 µM (PPYR1): 50.7%
inhibition at 20 µM (GCGR): 2.2%
inhibition at 20 µM (DRD2S): -8.1%
inhibition at 20 µM (GIPR): 23.3%
inhibition at 20 µM (DRD2L): 3.8%
inhibition at 20 µM (CCR6): 58.2%
inhibition at 20 µM (GHSR): 30.8%
inhibition at 20 µM (P2RY1): 5.5%
inhibition at 20 µM (CXCR3): 4.6%
inhibition at 20 µM (EDG4): 56.3%
inhibition at 20 µM (TSHR(L)): 7.6%
inhibition at 20 µM (PTHR2): 30.4%
inhibition at 20 µM (PTGER3): -13%
inhibition at 20 µM (TRHR): 42.8%
inhibition at 20 µM (CALCR): 14.1%
inhibition at 20 µM (HTR5A): 45.6%
inhibition at 20 µM (RXFP3): 32.8%
inhibition at 20 µM (GPR35): 27.1%
inhibition at 20 µM (GPR109A): 5.5%
inhibition at 20 µM (LHCGR): 56.3%
inhibition at 20 µM (CCR8): 43%
inhibition at 20 µM (CXCR5): 5.1%
inhibition at 20 µM (MC4R): 49.1%
SMILES: CC(=O)N[C@@H](CCCC#C/C=C/Cl)CCCCCCC(Cl)Cl [Compound 4, taveuniamide F]
